Measured values: US8680047B2, “Fas peptide mimetics and uses thereof” (The Trustees of the University of Pennsylvania, priority 2002, dated 2014)
Positions of bridges follow the written chain, without caps; N, C: chain ends. Residues, ends and D or L forms follow the SMILES beside them. No end group written: not given here.

Tests used:
[1] = system: Con A-induced hepatitis model; experiment: Con A-induced hepatitis model, serum transaminase activity; type: in vivo, C57BL/6 mice; conditions: IP pretreatment 30 min before Con A iv
Method: The biological activity of mimetic Kp7-6 was measured in vivo. FasL induced apoptosis is one of the primary and dominant pathways by which liver cells undergo apoptosis under various conditions such as viral infection, drug toxicity and other lesions. (Kakinuma, C. et al. Toxicol Pathol 27, 412-420 (1999); Famularo, G., et al. Med Hypotheses 53, 50-62 (1999); Gantner et al. supra). […] (Zhang, H. et al. Nat Biotechnol 18, 862-867 (2000); Song, E. et al. Nat Med (2003)). The antagonistic effect of Kp7-6 in vivo was tested using the Con A-induced hepatitis model. C57BL/6 mice were pretreated intraperitoneally (IP) with anti-FasL monoclonal antibody, Fas mimetic peptides or saline. After 30 min, animals were challenged intravenously with Con A or saline. The induction of liver damage and inflammatory hepatitis was evaluated by measuring the serum activities of alanine aminotransferase (ALT) and aspartate aminotransferase (AST) 12 h after Con A treatment.
Administration of Con A and Measurement of Serum Transaminase Activity. […]
Blood samples were collected from mice at 12 h after Con A injection, and the serum was taken by centrifugation. Serum activities of alanine aminotransferase (ALT) and aspartate aminotransferase (AST) were measured by Lippi-Guidi's method (Iatrozyme TA-LQ: Dia-Iatron Inc., Tokyo, Japan). […]

[2] = system: FasL-sensitive Jurkat cells; experiment: FasL-induced cytotoxicity assay in Jurkat cells ([3H]-thymidine incorporation); type: cell-based, human; conditions: for inhibition of Fas-mediated cytotoxicity: Jurkat cells stimulated with soluble FasL-Flag, various concentrations of mimetic
Method: To evaluate the effect of mimetics on Fas-mediated cytotoxicity, FasL-sensitive Jurkat cells were stimulated with soluble FasL-Flag fusion protein in the presence or absence of various concentrations of mimetics. The inhibitory effects of mimetics on Fas-mediated cytotoxicity were consistent with the results of the FasL-binding inhibition (FIG. 4). […] A concentration of 1 mM Kp7-6 protected more than 90% cells from Fas-mediated cytotoxicity (FIG. 4). […] Large dose of Kp7-6 was used in this experiment for better signal-to-noise ratio. To determine if mimetics derived from other binding sites would potentially be able to interact synergistically to block the Kp7 surface, Kp7 was used in combination with mimetics.
Cytotoxicity assay. Twenty microliters of Jurkat cells at 1×10^5 cells/ml were plated in 96-well U-bottom plates. FasL-Flag (120 ng/ml in culture medium) was preincubated with equal volume of peptide sample in PBS for 1 h at 37° C., and 20 μl of mixture was added to each well. After an incubation period of 24 h, each culture was pulsed with 1 μCi of [^3H]-thymidine for 24 h before harvesting on glass fiber filters. Incorporation of the ^3H-thymidine obtained with culture medium alone and with 30 ng/ml of FasL was used as reference for 100% survival and 0% survival, respectively. Survival (%) by several doses of peptides was plotted. Incorporation of the radioactive label was measured by liquid scintillation counting (Wallac, Finland) and expressed as the arithmetic mean counts per minute (cpm) of triplicate cultures.

[3] = molecular target: T1, FasL (Homo sapiens, UniProt P48023); experiment: Surface plasmon resonance (BIAcore) analysis, immobilized FasL-Flag; type: binding; conditions: FasL-Flag immobilized on sensor chip, 25° C.
T1 construct: Flag-tagged soluble human Fas ligand (FasL-Flag); purchased Kamiya Biomedical (Seattle, Wash.)
T1 sequence (P48023 130-281 limits assumed): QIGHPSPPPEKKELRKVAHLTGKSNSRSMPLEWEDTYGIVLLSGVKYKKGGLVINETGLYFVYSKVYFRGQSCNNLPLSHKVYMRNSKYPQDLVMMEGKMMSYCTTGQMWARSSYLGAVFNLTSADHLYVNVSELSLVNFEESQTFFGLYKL
Method: The kinetics of binding of Kp7-6, which mediated the best inhibitory activity to FasL, was performed using surface plasmon resonance (BIAcore™) analysis. […] The koff value is considered as an important indicator in the development of therapeutics with biological activity (Benveniste, M. et al. Br J Pharmacol 104, 207-221 (1991); Yiallouros, I. et al. Biochem J 331, 375-379 (1998)), and generally correlates with potent biological effects. (Moosmayer, D. et al. J Interferon Cytokine Res 16, 471-477 (1996)). […] (Berezov, A. et al. J Med Chem 44, 2565-2574 (2001)).
To assess the specificity of Kp7-6 binding interaction, Fas, FasL and TNFα were immobilized on a sensor chip. Kp7-6 bound to FasL but not to TNFα, which indicates Kp7-6 bound to FasL specifically (FIG. 3B). […] (Naismith, J. H. et al. Structure 4, 1251-1262 (1996)).
Biosensor analysis. All experiments were carried out on a BIAcore 3000 instrument (Biacore AG, Uppsala, Sweden) at 25° C. using PBS, pH 7.4, containing 0.005% surfactant P20 (Biacore AG) as the running buffer. FasL-Flag, Fas-Fc or TNFRI-Fc was immobilized on research-grade CM5 sensor chips (Biacore AG) using standard N-ethyl-N-dimethylaminopropyl carbodiimid/N-hydroxysuccinimide coupling. […] Data were analyzed with the BIA evaluation 3.0 software (Biacore AG). […]

Row | Compound | block of Con A-induced hepatic injury [1] | inhibition of Fas-mediated cytotoxicity [2] | further results
1 | YCDEHGLCY (disulfide 2-8 (inferred)) [Kp7-7, exocyclic mimetic derived from Fas Kp7 loop] | protection of mice against Con A induced liver injury |  | 
2 | YCNSTVCY (disulfide 2-7 (inferred)) [Kp1-1, exocyclic mimetic derived from Fas Kp1 loop] | did not block the hepatic injury |  | 
3 | YCDEQFCY (disulfide 2-7 (inferred)) [Kp7-10, exocyclic mimetic derived from Fas Kp7 loop] |  | dose-dependent inhibition | synergy in combination with members of the Kp4 mimetics ([2]; Fas-mediated cytotoxicity, data not shown): Neither Kp7-6 nor Kp7-10 used in combination with members of the Kp4 mimetics showed any significant synergy
4 | N[C@@H](Cc1ccc(O)cc1)C(=O)N[C@H]1CSSC[C@@H](C(=O)N[C@@H](Cc2ccc(O)cc2)C(=O)O)NC(=O)[C@H](Cc2ccccc2)NC(=O)[C@H](Cc2c[nH]cn2)NC(=O)[C@H](CCC(=O)O)NC(=O)[C@H](CC(=O)O)NC1=O [Kp7-6, YCDEHFCY] (H-YCDEHFCY-OH; disulfide 2-7; N-terminus and C-terminus assumed) |  | dose-dependent inhibitory activity | koff ([3]; read-out: koff rate constant): 0.000765 s⁻¹; kon ([3]; read-out: kon rate constant): 68.5 M⁻¹ s⁻¹; cells protected from Fas-mediated cytotoxicity ([2]; 1 mM mimetic, Jurkat cells, FasL-Flag): more than 90%
